Like-named read-outs stand apart in the source and are kept apart here.
Experiments:
MDA-MB-231 cells = assay: Cell anti-proliferation / toxicity assay (CCK-8), MDA-MB-231; type: cell-based
Procedure: Initial tests designed around assessing whether a synergistic effect would be observed in real when a combination of G9a inhibitor and HDAC inhibitor used in conjunction.
Cell anti-proliferation assays were performed to determine the toxicity of these inhibitors. Several cell lines (MDA-MB-231, MCF-7 and A549) were incubated and then treated with varying concentrations of the inhibitors for 72 h, respectively. […] These compounds were further evaluated against the control cell line HEK293 to test their toxicity with a non-cancerous cell line.
A549, MDA-MB-231, MCF-7 and HEK293 cells were seeded at 8000-10000 cells (100 μl) in white 96-well plates and pre-incubate the plate for 24 h under standard cell culture conditions, respectively. And then the cells were exposed to the different inhibitors with various concentrations for 72 h. Finally, 10 μl of CCK-8 kit solution was added to each well and incubated for 3-4 hours under standard cell culture conditions, and the 96 well plates were measured the absorbance at 450 nm using Perkin–Elmer Wallac Victor ^3V 1420 multi label plate reader (Perkin–Elmer, Wellesley, USA). EC50s were calculated using GraphPad Prizm statistical package with sigmoidal variable slope dose response curve fit.

MCF-7 cells = assay: Cell anti-proliferation / toxicity assay (CCK-8), MCF-7; type: cell-based
Procedure: (§1) Cell anti-proliferation assays were performed to determine the toxicity of these inhibitors. […] These compounds were further evaluated against the control cell line HEK293 to test their toxicity with a non-cancerous cell line.
(§2) And then the cells were exposed to the different inhibitors with various concentrations for 72 h. […] EC50s were calculated using GraphPad Prizm statistical package with sigmoidal variable slope dose response curve fit.

[1] = target: T1, Mouse histone methyltransferase G9a (969-1263) (Mus musculus, UniProt Q9Z148); assay: MALDI-TOF methylation study of G9a enzymatic activity (H3 peptide, SAM); type: biochemical; conditions: Supplementary Table 1; inhibitor 5 μM, 30 min; average of 3 values
T1 construct: The 6His-sumo mG9a (969-1263) protein was purified using the following procedure; 6His-sumo (N, cleaved yes); made in house; host or cells: Escherichia coli BL21 (DE3)
T1 sequence (Q9Z148 969-1263): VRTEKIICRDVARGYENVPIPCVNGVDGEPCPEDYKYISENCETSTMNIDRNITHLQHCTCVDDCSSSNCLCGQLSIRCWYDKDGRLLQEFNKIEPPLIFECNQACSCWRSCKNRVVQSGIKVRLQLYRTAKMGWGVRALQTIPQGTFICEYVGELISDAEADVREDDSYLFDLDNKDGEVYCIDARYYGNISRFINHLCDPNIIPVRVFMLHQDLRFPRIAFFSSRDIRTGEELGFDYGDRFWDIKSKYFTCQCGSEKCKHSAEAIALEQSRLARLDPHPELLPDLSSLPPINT
Procedure: Figure 3 compounds were synthesized from the commercially available starting material 1. An initial displacement reaction using a primary amine was used to introduce the C4 selective substitution, with the second displacement to introduce the linker at the C2 position following the microwave assisted reaction previously reported. Boc-protected ethylene diamine was treated with compound 2 at 160°C in a microwave for 10 min to yield product 3 with excellent yield. Afterward, the amine 3 was deprotected with TFA/DCM, and the free amine was treated with corresponding monomethyl esters (carbon chain 2-6) in the presence of coupling reagent EDCI and HOBt for about 8 hours to produce mono methyl ester substituted at the C2 position. The ester compounds further treated with hydroxylamine in water to get the corresponding hydroxamic acid derivatives, which were purified using reverse phase flash chromatography to obtain compounds 4-7 and 4a-7a in good yield. Synthesis of compounds in Figure 4 requires the C6 demethoxy core, and this was synthesized according to the reported procedure to yield 10 [45]. […] Compounds with the HDAC pharmacophore at the C4 position (Figure 2B) were synthesized from the starting material 1. […] A parallel synthesis and testing strategy were used in establishing the primary SAR, with the clear rationalization of the structure and activity at each stage we could reduce the synthetic targets. Initially, we evaluated the G9a potential after the introduction of HDAC pharmacophore. A biochemical assay using MALDI-TOF was used to visualize the effects of the synthesized compounds on G9a enzymatic activity, we carried out a biochemical reaction involving target enzyme G9a, methyl donor SAM and substrate H3 peptide at a concentration of 400 nM, 10 μM and 5 μM respectively.
Mouse histone methyltransferase G9a (969-1263) cDNA was amplified from the cDNA of BALB/c mouse thymus, and the fragment was sub-cloned into a vector with a 6His-sumo tag. The mouse G9a (mG9a) was expressed in Escherichia coli BL21 (DE3) by the addition of 1 mM isopropyl-1-thio-D-galactopyranoside (IPTG) and incubated overnight at 16°C.
The in vitro inhibition of G9a by the synthesized compounds were measured by MALDI-TOF mass spectrum (Bruker MALDI TOF/TOF Analyzer). 400 nM purified G9a, 5 μM synthesized histone H3 (1-21) and 10 μM non-radioactive S-adenosyl methionine (Sigma) were added in reaction buffer (50 mM HEPES pH 8.0, 5 μg/ml BSA and 0.1% β-Mercaptoethanol) with or without inhibitors (5 μM). The reaction was incubated at room temperature for 30 min, and stopped by TFA. 1 μl of the sample was mixed with CHCA matrix and m/z peaks were obtained at reflection positive mode. The results of mass spectrum were analyzed using the Bruker flex analysis software, a detailed description of data processing is provided as supplementary information (S3).
[…]
MALDI spectrums were collected using Bruker flex % conversion to product is also C, from this to get the control software and analyzed by flex analysis. After %maximal activity (%MA), C was compared to the % labelling each cluster peaks of H3K9Me0, H3K9Me1 conversion when no inhibitor was used (D). and H3K9Me2 for all of the tested concentrations, area Finally % inhibition was found by subtracting under the cluster (AUC) were extracted by using the same %MA from 100 […]
flex analysis software. % abundance of each peak was Example: % methylation levels and % inhibition calculated by following formula, when used 5 μM compound 14
A = % Abundance of (H3K9Me0) = area of A = 13.09
B = % Abundance of (H3K9Me1) = area of % conversion when no inhibitor was used D = 84.43 H3K9Me1/ (area of H3K9Me0+area of H3K9Me1 + area (average of six measurements) […]

HDAC [2] = assay: Homogeneous cellular histone deacetylase assay, Hela; type: cell-based, human; conditions: Supplementary Table 2; NA = not active up to highest concentration tested (100 μM); >100 = IC50 not reached at 100 μM; read-out: IC50-HDAC Hela
Procedure: (§3) The enzymatic activity of HDAC was measured in intact cells using the homogeneous cellular assay method. A cell-permeable peptide Boc-K(Ac)-AMC used as the HDAC substrate, after deacetylation it is cleaved by trypsin to release the fluorescent 7-amino-4-methylcoumarin (AMC) and further quantified.
(§4) The manual assay was developed by Thomas's group. […] After 24 h, 9 μl inhibitors with different concentration were added to the HeLa cells and incubation was continued for 3 h under cell culture conditions. After this treatment period, 10 μl of a 2 mM stock solution of the substrate Boc-K(Ac)-AMC was added into the 96 well plates with Hela cells and inhibitors. […] A549 and K562 cell lines used the same method, respectively. IC50s were calculated using GraphPad Prizm statistical package with sigmoidal variable slope dose response curve fit.

HDAC [3] = assay: Homogeneous cellular histone deacetylase assay, K562; type: cell-based, human; conditions: Supplementary Table 2; NA = not active up to highest concentration tested (100 μM); >100 = IC50 not reached at 100 μM; read-out: IC50-HDAC K562
Procedure: as §3, §4

HDAC [4] = assay: Homogeneous cellular histone deacetylase assay, A549; type: cell-based, human; conditions: Supplementary Table 2; NA = not active up to highest concentration tested (100 μM); >100 = IC50 not reached at 100 μM
Procedure: as §3, §4

A549 cells = assay: Cell anti-proliferation / toxicity assay (CCK-8), A549; type: cell-based; conditions: Homo sapiens, Table 6, 72 h, >100 = not reached at highest tested concentration (100 μM)
Procedure: as §1, §2

HEK293 cells = assay: Cell anti-proliferation / toxicity assay (CCK-8), HEK293 normal cell line; type: cell-based; conditions: Homo sapiens, Table 6, 72 h
Procedure: as §1, §2

[5] = Homo sapiens, MDA-MB-231, Supplementary Table 4, 72 h, CCK-8, >100 = not reached at 100 μM, read-out: EC50 MDA-MB-231
[6] = Homo sapiens, MCF7, Supplementary Table 4, 72 h, CCK-8, >100 = not reached at 100 μM, read-out: EC50 MCF-7
[7] = Homo sapiens, MDA-MB-231, Table 6, 72 h, CCK-8, mean ± SD of triplicates, read-out: EC50 MDA-MB-231
[8] = Homo sapiens, MDA-MB-231, read-out: EC50, MDA-MB-231 (combination study)

| inhibition at 5 µM [1] [%] | Structure (SMILES) | EC50 (MDA-MB-231 cells; [5]) [µM] | EC50 (MCF-7 cells; [6]) [µM] | also measured |
| --- | --- | --- | --- | --- |
| 65 ± 1.95 | COc1cc2nc(NCCNC(=O)CCCCCC(=O)NO)nc(NC3CCN(C)CC3)c2cc1OC [Compound 5, N1-(2-((6,7-dimethoxy-4-((1-methylpiperidin-4-yl)amino)quinazolin-2-yl)amino)ethyl)-N7-hydroxyheptanediamide] | > 100 | > 100 |  |
| 22.8 ± 26.7 | COc1ccc2c(NCCNC(=O)CCCCCCC(=O)NO)nc(N3CCCN(C)CC3)nc2c1 [Compound 21, N1-hydroxy-N8-(2-((7-methoxy-2-(4-methyl-1,4-diazepan-1-yl)quinazolin-4 yl)amino)ethyl)octanediamide] | > 100 | > 100 | IC50 (HDAC [2]): > 100 µM; IC50 (HDAC [3]): > 100 µM; IC50 (HDAC [4]): > 100 µM |
| 26.6 ± 11.3 | COc1cc2nc(NCCNC(=O)CCCCC(=O)NO)nc(NC3CCN(C)CC3)c2cc1OC [Compound 6, N1-(2-((6,7-dimethoxy-4-((1-methylpiperidin-4-yl)amino)quinazolin-2-yl)amino)ethyl)-N6-hydroxyadipamide] | > 100 | > 100 |  |
| 77.7 ± 5.73 | COc1cc2nc(N3CCCN(C)CC3)nc(NC3CCN(Cc4ccccc4)CC3)c2cc1OC [BIX-01294, reference compound] |  |  | EC50 (MDA-MB-231 cells; [7]): 2.16 ± 0.88 µM; EC50 (MDA-MB-231 cells; [8]): 2.16 ± 0.88 µM; EC50 (MCF-7 cells; Homo sapiens, MCF7, Table 6, 72 h, CCK-8, mean ± SD of triplicates, read-out: EC50 MCF-7): 8.1 ± 1.99 µM; EC50 (MCF-7 cells; Homo sapiens, MCF7, read-out: EC50, MCF-7 (combination study)): 8.1 ± 1.99 µM; EC50 (A549 cells): 21.7 ± 2.73 µM; EC50 (HEK293 cells): 2050 ± 980 nM |
|  | O=C(CCCCCCC(=O)Nc1ccccc1)NO [SAHA, reference compound] |  |  | EC50 (MDA-MB-231 cells; [7]): 2.87 ± 0.84 µM; EC50 (MDA-MB-231 cells; [8]): 2.87 ± 0.84 µM |
|  | CN1CCCN(c2nc(NC3CCN(Cc4ccccc4)CC3)c3ccc(OCCCCCCCC(=O)NO)cc3n2)CC1 [Compound 30, 8-((4-((1-benzylpiperidin-4-yl)amino)-2-(4-methyl-1,4-diazepan-1-yl)quinazolin-7-yl)oxy)-N-hydroxyoctanamide] |  |  | EC50 (MDA-MB-231 cells; Supplementary Table 4, 72 h, CCK-8, >100 = not reached at 100 μM, read-out: EC50 MDA-MB-231): 24 ± 3.64 µM; EC50 (MCF-7 cells; Supplementary Table 4, 72 h, CCK-8, >100 = not reached at 100 μM, read-out: EC50 MCF-7): > 100 µM |
| 50.6 ± 16.5 | COc1cc2nc(NCCNC(=O)CCCCC(=O)NO)nc(NC3CCN(C(C)C)CC3)c2cc1OC [Compound 6a, N1-hydroxy-N6-(2-((4-((1-isopropylpiperidin-4-yl)amino)-6,7-dimethoxyquinazolin-2-yl)amino)ethyl)adipamide] | > 100 | > 100 |  |
|  | COc1cc2c(NC3CCN(C(C)C)CC3)nc(N3CCCN(C)CC3)nc2cc1OCCCCCCC(=O)NO [Compound 26, N-hydroxy-7-((4-((1-isopropylpiperidin-4-yl)amino)-6-methoxy-2-(4-methyl-1,4-diazepan-1-yl)quinazolin-7-yl)oxy)heptanamide] | 31.3 ± 3.3 | > 100 |  |

Source: paper PMC5609913, “Structure based design, synthesis and activity studies of small hybrid molecules as HDAC and G9a dual inhibitors” (Oncotarget, 2017)
